These results are taken from PMC9358681 (Biochemical pharmacology, 2022).

Where “and” joins values, the source holds several entries; their conditions need not be identical. Equal entries are not always repeated. Where two headings read alike, the source gives them in different places.

Assay [1] deals with T1, human A2BAR (Homo sapiens, UniProt P29275).
T1 construct: host or cells: CHO-spap
T1 sequence (P29275 1-332): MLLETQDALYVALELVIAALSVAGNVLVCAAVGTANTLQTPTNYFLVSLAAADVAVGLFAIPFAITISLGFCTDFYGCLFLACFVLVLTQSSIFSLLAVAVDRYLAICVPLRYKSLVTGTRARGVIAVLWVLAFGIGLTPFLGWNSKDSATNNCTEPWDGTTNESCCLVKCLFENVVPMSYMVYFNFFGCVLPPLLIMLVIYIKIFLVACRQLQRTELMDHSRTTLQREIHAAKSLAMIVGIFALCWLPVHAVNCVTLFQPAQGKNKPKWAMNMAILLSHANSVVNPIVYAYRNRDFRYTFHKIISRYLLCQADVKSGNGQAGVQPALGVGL
Nature of the assay: [3H]PSB-603 displacement on CHO-spap-hA2BAR membranes. It counts as binding.

The target in assay [2] is T2, A1 adenosine receptor (Rattus norvegicus, UniProt P25099).
T2 sequence (P25099 1-326): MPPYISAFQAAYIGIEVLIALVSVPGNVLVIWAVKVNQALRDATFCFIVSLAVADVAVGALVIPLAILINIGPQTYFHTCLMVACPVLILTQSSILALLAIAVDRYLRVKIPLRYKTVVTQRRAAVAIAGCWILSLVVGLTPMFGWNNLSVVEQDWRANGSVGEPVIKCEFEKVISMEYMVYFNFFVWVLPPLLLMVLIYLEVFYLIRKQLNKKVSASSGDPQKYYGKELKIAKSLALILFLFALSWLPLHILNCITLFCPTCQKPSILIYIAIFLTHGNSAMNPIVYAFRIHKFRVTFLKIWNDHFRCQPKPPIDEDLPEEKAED
Nature of the assay: Radioligand binding, rat A1 ([3H]R-PIA, HEK-293). As to conditions: HEK-293, [3H]R-PIA. The source says:
(§1) The A2B receptor selectivity was generally low, especially at the rat A2B receptor.

Assay [3] concerns the target T3, A2B adenosine receptor (Rattus norvegicus, UniProt P29276).
T3 sequence (P29276 1-332): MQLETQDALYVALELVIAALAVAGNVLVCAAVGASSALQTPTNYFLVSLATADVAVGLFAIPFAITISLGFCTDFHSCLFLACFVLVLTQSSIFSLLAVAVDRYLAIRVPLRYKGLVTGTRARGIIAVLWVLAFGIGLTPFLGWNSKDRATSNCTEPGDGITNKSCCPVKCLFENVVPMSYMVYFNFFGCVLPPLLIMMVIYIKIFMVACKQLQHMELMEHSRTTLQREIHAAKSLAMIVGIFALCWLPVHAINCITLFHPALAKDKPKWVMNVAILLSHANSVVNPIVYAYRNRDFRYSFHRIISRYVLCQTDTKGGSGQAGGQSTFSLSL
Nature of the assay: Radioligand binding, rat A2B ([125I]I-ABOPX, HEK-293). As to conditions: rat (r), HEK-293, [125I]I-ABOPX.

Assay [4] has as its target A2A adenosine receptor (Rattus norvegicus, UniProt P30543). Nature of the assay: Radioligand binding, rat A2A ([3H]CGS21680, HEK-293). As to conditions: rat (r), HEK-293, [3H]CGS21680.
Assay [5] has as its target T1, human A2BAR. Nature of the assay: [3H]PSB-603 competition association assay. As to conditions: for RT: RT = 1/koff, competing ligand at 1.0-fold IC50, up to 3 hr; for Kd: read-out: Kinetic KD (koff/kon). It counts as binding. The method, then: In all radioligand binding experiments, CHO-spap-hA2BAR membranes were thawed and homogenized using an Ultra Turrax homogenizer at 24,000 rpm (IKA-Werke GmbH & Co.KG, Staufen, Germany), diluted in assay buffer to the desired concentration (10–30 μg per well or Eppendorf tube). All materials were brought to 25 °C, 30 min prior to the experiment. ZM241385 (10 μM) was used to determine nonspecific binding (NSB).
Addition of CHO-spap-hA2BAR membrane aliquots initiated the association. The amount of receptor-bound radioligand was determined at different time points up to 3 hr. After 3 hr the incubation was terminated and samples were obtained as described under “Displacement experiments”.
All competition association data were globally fitted.

Assay [6] deals with T4, A1 adenosine receptor (Homo sapiens, UniProt P30542).
T4 sequence (P30542 1-326): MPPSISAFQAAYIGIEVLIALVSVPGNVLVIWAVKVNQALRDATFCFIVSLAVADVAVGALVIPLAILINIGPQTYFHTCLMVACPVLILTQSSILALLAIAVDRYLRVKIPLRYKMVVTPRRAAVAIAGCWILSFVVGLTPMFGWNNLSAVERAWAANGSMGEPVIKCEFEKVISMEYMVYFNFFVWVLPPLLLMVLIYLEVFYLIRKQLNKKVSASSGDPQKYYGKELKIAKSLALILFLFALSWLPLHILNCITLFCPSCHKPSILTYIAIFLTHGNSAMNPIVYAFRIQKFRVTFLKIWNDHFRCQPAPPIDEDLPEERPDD
Nature of the assay: Radioligand binding, human A1 ([3H]R-PIA, HEK-293). As to conditions: HEK-293, [3H]R-PIA.
Source text: as §1

Assay [7] has as its target A2A adenosine receptor (Homo sapiens, UniProt P29274). Nature of the assay: Radioligand binding, human A2A ([3H]CGS21680, HEK-293). As to conditions: HEK-293, [3H]CGS21680.
Setting [8] is: […] [3H]PSB-603, 2 h, 25 °C, read-out: Ki (converted).
Setting [9] is: […] [3H]PSB-603, 2 h, 25 °C, read-out: pKi (converted).

Chain of A2A adenosine receptor (Rattus norvegicus, UniProt P30543) (P30543 whole entry): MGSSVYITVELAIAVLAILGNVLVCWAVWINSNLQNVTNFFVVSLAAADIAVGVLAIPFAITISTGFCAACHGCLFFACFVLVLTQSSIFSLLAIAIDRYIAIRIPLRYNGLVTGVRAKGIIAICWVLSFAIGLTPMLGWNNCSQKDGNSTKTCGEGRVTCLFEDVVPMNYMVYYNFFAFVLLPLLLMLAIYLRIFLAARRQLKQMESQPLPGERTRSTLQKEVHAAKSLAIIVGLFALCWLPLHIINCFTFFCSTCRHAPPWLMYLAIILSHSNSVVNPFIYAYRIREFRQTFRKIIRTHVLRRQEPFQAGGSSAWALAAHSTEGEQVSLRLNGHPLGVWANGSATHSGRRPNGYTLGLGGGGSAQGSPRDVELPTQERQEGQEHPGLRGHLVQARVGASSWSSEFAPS
Chain of A2A adenosine receptor (Homo sapiens, UniProt P29274) (P29274 whole entry): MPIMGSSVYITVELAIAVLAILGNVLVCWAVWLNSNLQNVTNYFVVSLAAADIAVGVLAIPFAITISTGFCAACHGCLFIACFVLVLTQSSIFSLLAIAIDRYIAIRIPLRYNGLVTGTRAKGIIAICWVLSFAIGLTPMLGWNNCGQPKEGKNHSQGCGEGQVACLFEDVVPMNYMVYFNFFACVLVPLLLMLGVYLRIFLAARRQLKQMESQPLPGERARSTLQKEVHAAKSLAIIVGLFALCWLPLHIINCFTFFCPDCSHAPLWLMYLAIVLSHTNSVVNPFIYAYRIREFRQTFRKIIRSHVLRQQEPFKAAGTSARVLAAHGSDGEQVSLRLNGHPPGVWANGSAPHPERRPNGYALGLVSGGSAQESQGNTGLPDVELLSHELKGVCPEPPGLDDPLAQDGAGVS

On to `CCCn1c(=O)c2[nH]c(-c3ccc(OCC(=O)NC4CCCC4)cc3)nc2n(CCC)c1=O` [Compound 5, N-cyclopentyl-2-(4-(2,6-dioxo-1,3-dipropyl-2,3,6,7-tetrahydro-1H-purin-8-yl)phenoxy)acetamide], for which the Ki was 16700 nM in assay [1] (setting [8]), 13.9 ± 1.8 nM in assay [2], 26.3 nM in assay [3] and 19.1 ± 5.1 nM in assay [4].
For `CCCn1c(=O)c2[nH]c(-c3ccc(OCC(=O)Nc4cnccn4)cc3)nc2n(CCC)c1=O` [Compound 10, 2-(4-(2,6-dioxo-1,3-dipropyl-2,3,6,7-tetrahydro-1H-purin-8-yl)phenoxy)-N-(pyrazin-2-yl)acetamide], in assay [1] (setting [8]), the Ki is 6950 nM.
By koff is commonly meant the first-order rate constant of dissociation. For orientation: kon means the rate constant with which the complex forms. For `CCCn1c(=O)c2[nH]c(-c3ccc(OCC(=O)NC(c4ccccc4)c4ccccc4)cc3)nc2n(CCC)c1=O` [Compound 26], the Ki in assay [1] (setting [8]) was 37.9 nM. The molecule further yielded an RT in assay [5] (25 °C) of 19 ± 6.2 min. Also, the Kd in assay [5] turned out to be 31 ± 16 nM. Further, the koff in assay [5] (read-out: koff (converted)) was 0.000883 s⁻¹. For the same molecule, the on-rate (kon) in assay [5] (read-out: kon (converted)) is 28300 M⁻¹ s⁻¹.
With `CCCn1c(=O)c2[nH]c(-c3ccc(OCC(=O)N(CC(=O)OCC)CC(=O)OCC)cc3)nc2n(CCC)c1=O` [Compound 11], the Ki in assay [1] (setting [9]) was 112 nM.
For `CCCn1c(=O)c2[nH]c(-c3ccc(OCC(=O)Nc4ccc(C(C)=O)cc4)cc3)nc2n(CCC)c1=O` [Compound 16], in assay [1], the Ki is 3.03 nM. In addition, in assay [5], the koff was 0.000317 s⁻¹, the kon was 183000 M⁻¹ s⁻¹ and the Kd was 1.7 ± 0.58 nM. In assay [5] (25 °C), the RT is 54 min and 54 ± 18 min.
On to `CCCn1c(=O)c2[nH]c(-c3ccc(OCC(=O)NC4CC4)cc3)nc2n(CCC)c1=O` [Compound 3, N-cyclopropyl-2-(4-(2,6-dioxo-1,3-dipropyl-2,3,6,7-tetrahydro-1H-purin-8-yl)phenoxy)acetamide], for which the Ki in assay [1] (setting [8]) is 36.3 nM; in assay [2], 10.7 ± 1.75 nM; in assay [3], 36.6 ± 5.1 nM; in assay [4], 51.7 ± 19.6 nM. Also, the RT in assay [5] (25 °C) is 0.9 min and 0.9 ± 0.0 min. Moreover, the koff in assay [5] (read-out: koff (converted)) is 0.0178 s⁻¹. The kon in assay [5] (read-out: kon (converted)) is 600000 M⁻¹ s⁻¹.
For `CCCn1c(=O)c2[nH]c(-c3ccc(OCC(=O)NC4CCCCC4)cc3)nc2n(CCC)c1=O` [Compound 7, N-cyclohexyl-2-(4-(2,6-dioxo-1,3-dipropyl-2,3,6,7-tetrahydro-1H-purin-8-yl)phenoxy)acetamide], the Ki in assay [1] (setting [8]) was 951 nM; in assay [2], 23 ± 4.1 nM; in assay [3], 73.5 ± 25.8 nM; in assay [4] it was 19.3 ± 6.7 nM.
For `CCCn1c(=O)c2[nH]c(-c3ccc(OCC(=O)Nc4ccc(C(F)(F)F)cc4)cc3)nc2n(CCC)c1=O` [Compound 15], the Ki in assay [1] (setting [8]) is 2.86 nM. The kon entry in assay [5] (competing ligand at 1.0-fold IC50, […] [3H]PSB-603, up to 3 hr, 25 °C) is on record as “Kinetics outside the range of the assay (see text)”.
For `CCCn1c(=O)c2[nH]c(-c3ccc(OCC(=O)N(Cc4ccccc4)Cc4ccccc4)cc3)nc2n(CCC)c1=O` [Compound 27], the Ki in assay [1] (setting [9]) is 120 nM.
In the case of `CCCn1c(=O)c2[nH]c(-c3ccc(OCC(=O)Nc4ccccc4)cc3)nc2n(CCC)c1=O` [Compound 8], the Ki in assay [1] (setting [8]) was 1.93 nM. In addition, the RT in assay [5] (25 °C) is 46 min and 46 ± 13 min. Further, the koff in assay [5] (read-out: koff (converted)) was 0.000367 s⁻¹. The kon in assay [5] (read-out: kon (converted)) is 250000 M⁻¹ s⁻¹.
With `CCCn1c(=O)c2[nH]c(-c3ccc(OCC(=O)NCc4ccc(O)c(O)c4)cc3)nc2n(CCC)c1=O` [Compound 23, N-(3,4-dihydroxybenzyl)-2-(4-(2,6-dioxo-1,3-dipropyl-2,3,6,7-tetrahydro-1H-purin-8-yl)phenoxy)acetamide], in assay [1] (setting [8]), the Ki was 24.4 nM. For the same molecule, the Kd in assay [5] came to 27 ± 7.9 nM. For the same molecule, the koff in assay [5] (read-out: koff (converted)) is 0.00165 s⁻¹. In addition, the kon in assay [5] (read-out: kon (converted)) is 66700 M⁻¹ s⁻¹.
As to `CCCn1c(=O)c2[nH]c(-c3ccc(OCC(=O)Nc4ccc([N+](=O)[O-])cc4)cc3)nc2n(CCC)c1=O` [Compound 14], the Ki in assay [1] (setting [8]) is 13.5 nM. Further, the RT in assay [5] (25 °C) is 58 min and 58 ± 19 min. Also, the Kd in assay [5] is 12 ± 4.9 nM. Moreover, the koff in assay [5] (read-out: koff (converted)) is 0.000283 s⁻¹. The kon in assay [5] (read-out: kon (converted)) is 23300 M⁻¹ s⁻¹.
Turning to `CCCn1c(=O)c2[nH]c(-c3ccc(OCC(=O)NCc4ccccc4)cc3)nc2n(CCC)c1=O` [Compound 19], the Ki in assay [2] is 5.02 nM; in assay [6], 54.7 ± 21.2 nM; in assay [4] it was 25.9 nM; in assay [7], 23.8 ± 5.7 nM.
Consider `CCCn1c(=O)c2[nH]c(-c3ccc(OCC(=O)Nc4cc[nH]n4)cc3)nc2n(CCC)c1=O` [Compound 6, 2-(4-(2,6-dioxo-1,3-dipropyl-2,3,6,7-tetrahydro-1H-purin-8-yl)phenoxy)-N-(1H-pyrazol-3-yl)acetamide], for which the Ki in assay [1] (setting [8]) was 5480 nM.
A word on the pKi: it is the negative decadic logarithm of the Ki, by convention in mol/L. High values mean a low Ki, low ones a high Ki. Consider “2-(4-(2,6-dioxo-1,3-dipropyl-2,3,6,7-tetrahydro-1H-purin-8-yl) phenoxy)-N-(pyridin-4-ylmethyl)acetamide [Compound 9]”, for which the pKi in assay [1] ([…] [3H]PSB-603, 2 h, 25 °C) came to 5.87 ± 0.16. Moreover, in assay [1] (setting [8]), the Ki was 1350 nM.
For the molecule `CCCn1c(=O)c2[nH]c(-c3ccc(OCC(=O)NC4CCC4)cc3)nc2n(CCC)c1=O` [Compound 4, N-cyclobutyl-2-(4-(2,6-dioxo-1,3-dipropyl-2,3,6,7-tetrahydro-1H-purin-8-yl)phenoxy)acetamide], the Ki in assay [1] (setting [8]) was 61400 nM; in assay [1] ([…] [3H]PSB-603, 2 h, 25 °C, read-out: affinity (Ki)), 61400 nM.
Consider `CCCn1c(=O)c2[nH]c(-c3ccc(OCC(=O)Nc4ccc(C#N)cc4)cc3)nc2n(CCC)c1=O` [Compound 13], for which the RT in assay [5] (25 °C) was 69 min and 69 ± 2.4 min.
As for `CCCn1c(=O)c2[nH]c(-c3ccc(OCC(=O)Nc4ccc(C)cc4)cc3)nc2n(CCC)c1=O` [Compound 12], the Ki in assay [1] (setting [8]) is 3.42 nM. In assay [5] (25 °C), this molecule came in with an RT of 55 ± 25 min. Also, in assay [5], the Kd is 2.7 ± 1.5 nM. The koff in assay [5] (read-out: koff (converted)) was 0.0003 s⁻¹. Further, the kon in assay [5] (read-out: kon (converted)) was 117000 M⁻¹ s⁻¹.
